Data from paper PMC6271632, “Tryptophan as a Probe to Study the Anticancer Mechanism of Action and Specificity of α-Helical Anticancer Peptides” (Molecules, 2014).

What was measured:
[1] = RP-HPLC retention time (relative hydrophobicity); format: physicochemical; conditions: measure of relative hydrophobicity, Zorbax 300 SB-C8 150 × 4.6 mm, linear AB gradient 1% acetonitrile/min, 0.1% TFA, 1 mL/min
Procedure: The relative hydrophobicity of the peptides was determined by measuring their RP-HPLC retention times at 25 °C. The retention times of peptides are highly sensitive to the helicity of peptides upon the interaction between the peptide with the hydrophobic environment of the column matrix. From Table 2, the relative hydrophobicity of peptide analogs is in the order PCW < PMW < PNW. […] It is well known that the chromatography conditions characteristic of RP-HPLC (hydrophobic stationary phase, non-polar eluting solvent) induce helical structures in potentially helical peptides in a manner similar to that of the helix-inducing solvent trifloroethanol (TFE).
Peptide samples were analyzed on a Shimadzu LC-20A HPLC column. Runs were performed on a Zorbax 300 SB-C8 column (150 × 4.6 mm ID, 5 μm particle size, 300Å pore size) from Agilent Technologies, using a linear AB gradient (1% acetonitrile/min) and a flow rate of 1 mL/min, in which eluent A was 0.1% aqueous TFA in water and eluent B was 0.1% TFA in acetonitrile. Temperature profiling analyses during RP-HPLC were performed in 5 °C increments, from 5 °C to 80 °C, as described previously.

[2] = RP-HPLC temperature profiling (peptide self-association); format: physicochemical; conditions: RP-HPLC temperature profiling 5 to 80 °C in 5 °C increments; maximal retention time difference normalised to control peptide C; Zorbax 300 SB-C8
Procedure: Figure 2 Peptide self-association ability during RP-HPLC temperature profiling. The retention behavior of the peptides was normalized to that of the random coil peptide C through the expression (tR^t − tR^5 for peptide analogs) minus (tR^t − tR^5 for control peptide C), where tR^t is the retention time at a specific temperature of the anticancer peptides or the random coil peptide, and tR^5 is the retention time at 5 °C.
We utilized the RP-HPLC temperature profiling technique to determine the peptide self-association ability in aqueous solution which we believe is a very important parameter to understand anticancer activity. When the self-association ability of a peptide is too strong in aqueous solution, it could decrease the ability of the peptide to dissociate and penetrate into membranes to kill target cells. […] The curves were normalized with the control peptide C which is a monomeric random coil peptide in both aqueous and hydrophobic media, showing only the general temperature effects. The peptide self-association parameter (PA) is the maximum change in peptide retention time relative to the control peptide C, to quantify the self-association ability of peptides in solution. The details of how to determine peptide self-association parameter were reported previously. […]
Peptide samples were analyzed on a Shimadzu LC-20A HPLC column. […]

[3] = Circular dichroism spectroscopy (helicity); format: physicochemical; conditions: for [θ]222 Benign / [θ]222 SDS in Buffer / [θ]222 50%TFE: CD, 222 nm, 75 μM peptide; for [θ]222 Benign / [θ]222 SDS in Buffer / [θ]222 50%TFE / % Helix SDS in Buffer / % Helix 50%TFE: 25 °C; for [θ]222 Benign: KP buffer (100 mM KCl, 50 mM KH2PO4/K2HPO4, pH 7.4); for [θ]222 SDS in Buffer / % Helix SDS in Buffer: KP buffer with 10 mM SDS; for [θ]222 50%TFE / % Helix 50%TFE: KP buffer with 50% TFE; for % Helix Benign / % Helix SDS in Buffer / % Helix 50%TFE: relative to molar ellipticity of PMW in 50% TFE; for % Helix Benign: KP buffer pH 7.4, 25 °C
Procedure: Peptide secondary structure was measured by CD spectroscopy on a Jasco-810 spectropolarimeter under mild buffer conditions (50 mM KH2PO4/K2HPO4, and 100 mM KCl, pH 7), in 50% TFE and under mild buffer conditions with 10 mM SDS to mimic the hydrophobic environment of the cell membrane (Figure 1 and Table 2). All peptide analogs show negligible helical structures with molar ellipticity values ranging from −5900 to −7800 under mild conditions. In contrast, all peptide analogs were induced into highly helical structures with molar ellipticity values ranging from −24,300 to −31,700 in the hydrophobic environment of 50% TFE and molar ellipticity values ranging from −17,800 to −27,300 in the hydrophobic buffer environment in the presence of 10 mM SDS. […] It is obvious that the tryptophan residue played an important role in stabilizing the helical structure at the N-terminus or in the middle position of the peptide sequence.
Circular dichroism (CD) spectra were acquired with a 0.02 cm path length quartz cuvette on a Jasco J-810 spectropolarimeter (Jasco, Easton, MD, USA) at 25 °C as described previously. The concentration of 75 μM peptides was measured in benign buffer (50 mM KH2PO4/K2HPO4, and 100 mM KCl (pH 7.4)), benign buffer with 50% TFE and benign buffer with 10 mM SDS at 25 °C. The mean residue molar ellipticities were calculated by the equation [θ] = θ/10lCMn and θ is the ellipticity in millidegrees, l is the optical path length of the cuvette in centimeters, CM is the peptide concentration in mole/liter, and n is the number of residues in the peptide. The values of mean residue molar ellipticities of the peptide analogs at 222 nm were used to determine the relative helicity of the peptides.

HeLa cells = format: cell-based, Human; conditions: 1 h
Procedure: The MTT assay has been used to test cytotoxicity of reagents and cell viability. Human cervix carcinoma cells (HeLa cells) were seeded in 96-well plates and incubated with serially 2-fold diluted concentration of different peptides (μM) for 1 h at 37 °C. As a negative control, cells were cultured without addition of the peptides. Thereafter, 20 μL of 5 mg/mL MTT solution in PBS were added to cells and treated for 4 h at 37 °C. The formazan crystals were dissolved by adding 150 μL dimethyl sulfoxide (DMSO) just before spectrometric determination. The absorbance was determined at 490 nm. The results were expressed as IC50, representing the concentration at which cell ability was reduced by 50%. The cytotoxicity assays were repeated in triplicates.

human red blood cells = format: cell-based; conditions: red cells of human, 1 h
Procedure: Peptide samples were serially diluted by PBS in 96-well plates (round bottom) to give a volume of 70 μL sample solution in each well. Human erythrocytes anticoagulated by EDTAK2 were collected by centrifugation (1000 rpm) for 5 min, and washed twice by PBS, then diluted to a concentration of 2% in PBS. 70 μL of 2% erythrocytes were added to each well to give a final concentration of 1% human erythrocytes in each well and plates were incubated at 37 °C for 1 h. The plates were then centrifuged for 10 min at 3,000 rpm and supernatant (90 μL) was transferred to a 96-well plate (flat bottom). The release of hemoglobin was determined by measuring the absorbance of the supernatant at 540 nm. The hemolytic activity was determined as the minimal peptide concentration that caused hemolysis (minimal hemolytic concentration, MHC). Erythrocytes in PBS and distilled water were used as control of 0% and 100% hemolysis, respectively.

[4] = Isothermal titration calorimetry with DMPC LUVs; format: binding; conditions: ITC, 25 °C
Procedure: The interaction of the peptides PNW and PCW with phospholipids was investigated using ITC at 25 °C, in which DMPC or DMPS LUVs were injected into an ITC cell containing peptide solutions of PNW or PCW. Based on the tryptophan fluorescence and quenching experiments, PNW and PCW could cover the trend of peptide-membrane interaction, thus, PMW was not included in the liposome experiments. The interaction of peptides with phospholipid bilayer membrane is entropy-driven. […] It is clear to see that the endothermic heat flow decreased with the increase of the number of injections and the free peptide concentration in the cell decreased simultaneously. The endothermic binding reaction of peptide PNW ceased after 20 injections, when all of peptide in bulk bound to DMPC LUVs (Figure 4A) and the further addition of DMPC LUVs caused dilution heat. However, the endothermic binding reaction of PCW ceased after 22 injections.
To mimic cancer cell and normal cell membranes, desired phospholipid powders were mixtured under certain ratios. Phospholipid mixtures were dissolved in chloroform, dried by N2 flow, and then vacuumed overnight to remove the trace of organic solvents. […] The phospholipid concentrations were determined by phosphorus analysis. […]

[5] = Isothermal titration calorimetry with DMPS LUVs; format: binding; conditions: ITC, 25 °C, 10 mM HEPES, 150 mM NaCl pH 7.0
Procedure: To mimic cancer cell and normal cell membranes, desired phospholipid powders were mixtured under certain ratios. Phospholipid mixtures were dissolved in chloroform, dried by N2 flow, and then vacuumed overnight to remove the trace of organic solvents. The lipids were hydrated in 10 mM HEPES and 150 mM NaCl buffer (pH 7.4) and extensively vortexed above the phase-transition temperature of phospholipid, obtaining multilamellar large vesicles (MLVs). To obtain large unilamellar vesicles (LUVs), the MLVs was exposed to five freeze-thaw cycles and pass 21 times through two polycarbonate membrane (0.1 μm) with a mini-extruder above the phase-transition temperature of phospholipids. The phospholipid concentrations were determined by phosphorus analysis.
The affinity of peptides with LUV liposomes were detected by a Nano ITC2G isothermal titration calorimeter (TA Instrument Corp., New Castle, DE, USA) at 25 °C, under HEPES buffer condition (10 mM HEPES, and 150 mM NaCl (pH 7.0)). To avoid air bubbles, peptides and LUV solutions were degassed under vacuum 500 mmHg, for 14 min before using. […]

tR (retention time at 25 °C by RP-HPLC) [1]	PA (association parameter) [2]	[θ]222 Benign [3]	[θ]222 SDS in Buffer [3]	[θ]222 50%TFE [3]	% Helix Benign [3]	% Helix SDS in Buffer [3]	% Helix 50%TFE [3]	IC50 (HeLa cells)	Structure (SMILES)	MHC (minimal hemolytic concentration) (human red blood cells)	affinity constant Ka to DMPC LUVs [4]	Ka (affinity constant) ([4]; 10 mM HEPES, 150 mM NaCl pH 7.0)	Ka (affinity constant) [5]
45.6 min	4.5 min	−5900 degree cm^2 dmol^−1	−17,800 degree cm^2 dmol^−1	−24300 degree.cm^2.dmol^−1	18%	56%	76%	2330 ± 120 nM	CC[C@H](C)[C@H](NC(=O)[C@H](CCCCN)NC(C)=O)C(=O)N[C@@H](CCCCN)C(=O)N[C@@H](CO)C(=O)N[C@@H](Cc1ccccc1)C(=O)N[C@@H](CC(C)C)C(=O)N[C@@H](CCCCN)C(=O)N[C@H](C(=O)N[C@@H](Cc1ccccc1)C(=O)N[C@@H](CCCCN)C(=O)N[C@@H](CO)C(=O)N[C@@H](CC(C)C)C(=O)N[C@@H](CCCCN)C(=O)N[C@@H](CCCCN)C(=O)N[C@H](C(=O)N[C@H](C(=O)N[C@@H](CC(C)C)C(=O)N[C@@H](Cc1c[nH]cn1)C(=O)N[C@H](C(=O)N[C@@H](CC(C)C)C(=O)N[C@@H](CC(C)C)C(=O)N[C@@H](CCCCN)C(=O)N[C@@H](C)C(=O)N[C@@H](Cc1c[nH]c2ccccc12)C(=O)N[C@@H](CO)C(=O)N[C@@H](CO)C(N)=O)[C@@H](C)O)C(C)C)[C@@H](C)O)[C@@H](C)O [PCW]	10.41 ± 0.01 µM	4150 M⁻¹	4.15 [M]^−1× 10^3	17.70 [M]^−1× 10^3
46.5 min	5.3 min	−7400 degree cm^2 dmol^−1	−25,050 degree cm^2 dmol^−1	−31900 degree.cm^2.dmol^−1	23%	79%	100%	2470 ± 180 nM	CC[C@H](C)[C@H](NC(=O)[C@H](C)NC(=O)[C@H](CCCCN)NC(=O)[C@H](CC(C)C)NC(=O)[C@H](CC(C)C)NC(=O)[C@@H](NC(=O)[C@H](Cc1c[nH]cn1)NC(=O)[C@H](CC(C)C)NC(=O)[C@@H](NC(=O)[C@@H](NC(=O)[C@H](CCCCN)NC(=O)[C@H](CCCCN)NC(=O)[C@H](Cc1c[nH]c2ccccc12)NC(=O)[C@H](CO)NC(=O)[C@H](CCCCN)NC(=O)[C@H](Cc1ccccc1)NC(=O)[C@@H](NC(=O)[C@H](CCCCN)NC(=O)[C@H](CC(C)C)NC(=O)[C@H](Cc1ccccc1)NC(=O)[C@H](CO)NC(=O)[C@H](CCCCN)NC(=O)[C@@H](NC(=O)[C@H](CCCCN)NC(C)=O)[C@@H](C)CC)[C@@H](C)O)[C@@H](C)O)C(C)C)[C@@H](C)O)C(=O)N[C@@H](CO)C(=O)N[C@@H](CO)C(N)=O [PMW]	10.41 ± 0.01 µM	–	–	–
